ChEMBL document CHEMBL5465560, “Selectivity Literature for EUbOPEN Chemogenomic Library” (2024)
Each block holds one compound with its values, some of them ahead of it.

Legend:
[1] = target: T1, Non-receptor tyrosine-protein kinase TYK2 (Homo sapiens, UniProt P29597); experiment: Selectivity interaction (KinomeScan (DiscoverX)) EUB0001868a TYK2; conditions: at 1 µM
[2] = target: Mitogen-activated protein kinase 3 (Homo sapiens, UniProt P27361); experiment: Selectivity interaction (Ambit KINOMEscan and KiNATiv profiling in Jurkat cells) EUB0000090b MAPK3; type: cell-based; conditions: at 1 µM
[3] = target: T2, Serine/threonine-protein kinase Nek9 (Homo sapiens) (UniProt Q8TD19); experiment: Selectivity interaction (Kinase panel (Invitrogen)) EUB0000639a NEK9; conditions: at 200 nM
T2 sequence (whole entry): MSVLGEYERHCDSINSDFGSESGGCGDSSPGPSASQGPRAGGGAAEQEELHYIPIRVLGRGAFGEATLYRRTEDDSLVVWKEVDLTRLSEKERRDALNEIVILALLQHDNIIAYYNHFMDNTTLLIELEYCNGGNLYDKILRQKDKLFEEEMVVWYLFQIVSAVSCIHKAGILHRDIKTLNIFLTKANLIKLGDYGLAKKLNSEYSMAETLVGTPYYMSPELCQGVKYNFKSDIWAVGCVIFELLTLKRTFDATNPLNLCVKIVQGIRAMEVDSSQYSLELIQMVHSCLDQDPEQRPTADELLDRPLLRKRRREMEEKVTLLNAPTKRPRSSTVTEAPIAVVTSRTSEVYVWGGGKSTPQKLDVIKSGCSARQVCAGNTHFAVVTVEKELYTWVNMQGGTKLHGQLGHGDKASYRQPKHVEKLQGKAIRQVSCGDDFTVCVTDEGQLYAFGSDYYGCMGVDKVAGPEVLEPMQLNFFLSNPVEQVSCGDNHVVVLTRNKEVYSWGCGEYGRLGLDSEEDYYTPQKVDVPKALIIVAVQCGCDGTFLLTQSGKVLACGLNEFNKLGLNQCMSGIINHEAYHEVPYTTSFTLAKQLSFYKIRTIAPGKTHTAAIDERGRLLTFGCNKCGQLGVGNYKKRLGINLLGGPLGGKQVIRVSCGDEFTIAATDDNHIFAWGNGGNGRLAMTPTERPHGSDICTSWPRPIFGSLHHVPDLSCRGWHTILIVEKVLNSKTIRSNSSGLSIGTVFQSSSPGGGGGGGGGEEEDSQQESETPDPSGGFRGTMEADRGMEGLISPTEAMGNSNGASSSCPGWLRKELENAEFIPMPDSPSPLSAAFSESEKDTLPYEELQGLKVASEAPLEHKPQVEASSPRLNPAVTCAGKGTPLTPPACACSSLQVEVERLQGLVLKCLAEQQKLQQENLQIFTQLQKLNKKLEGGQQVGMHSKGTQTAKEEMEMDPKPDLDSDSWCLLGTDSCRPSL

SRSF protein kinase 1 = SRSF protein kinase 1 (Homo sapiens, UniProt Q96SB4); experiment: Selectivity interaction (ActivX KiNativ screen (kinase selectivity in THP-1 cell lysates)) EUB0000639a SRPK1; type: subcellular; conditions: lysate, at 0.01 µM
[4] = target: T1, Non-receptor tyrosine-protein kinase TYK2; experiment: Selectivity interaction (ActivX KiNativ screen (kinase selectivity in THP-1 cell lysates)) EUB0000639a TYK2; type: subcellular; conditions: lysate
[5] = target: Interferon-induced, double-stranded RNA-activated protein kinase (Homo sapiens) (UniProt P19525); experiment: Selectivity interaction (ActivX KiNativ screen (kinase selectivity in THP-1 cell lysates)) EUB0000639a EIF2AK2; type: subcellular; conditions: lysate, at 1 µM
Cannabinoid receptor 1 = Cannabinoid receptor 1 (Homo sapiens, UniProt P21554); experiment: Selectivity interaction (Cannabinoid CB1 calcium flux assay, agonist and antagonist mode ) EUB0000877a CNR1
[6] = target: Serine/threonine-protein kinase 10 (Homo sapiens) (UniProt O94804); conditions: at 10 µM
[7] = target: Mitogen-activated protein kinase 11 (Homo sapiens) (UniProt Q15759); conditions: at 10 µM
[8] = target: Histone-lysine N-methyltransferase SETDB1 (Homo sapiens) (UniProt Q15047); experiment: Selectivity interaction (Methyltransferase screen (radiometric assays, panel of 8 PRMTs, 21 protein lysine methyltransferases, 3 DNA methyltransferases, and one RNA methyltransferase)) EUB0000271b SETDB1
[9] = target: Tyrosine-protein kinase Lck (Homo sapiens, UniProt P06239); experiment: Selectivity interaction (ProQinase) EUB0000171b LCK
[10] = target: T3, Serine/threonine-protein kinase TBK1 (Homo sapiens) (UniProt Q9UHD2); experiment: Selectivity interaction (KinomeScan (DiscoverX)) EUB0000092b TBK1; conditions: at 10 µM
T3 sequence (whole entry): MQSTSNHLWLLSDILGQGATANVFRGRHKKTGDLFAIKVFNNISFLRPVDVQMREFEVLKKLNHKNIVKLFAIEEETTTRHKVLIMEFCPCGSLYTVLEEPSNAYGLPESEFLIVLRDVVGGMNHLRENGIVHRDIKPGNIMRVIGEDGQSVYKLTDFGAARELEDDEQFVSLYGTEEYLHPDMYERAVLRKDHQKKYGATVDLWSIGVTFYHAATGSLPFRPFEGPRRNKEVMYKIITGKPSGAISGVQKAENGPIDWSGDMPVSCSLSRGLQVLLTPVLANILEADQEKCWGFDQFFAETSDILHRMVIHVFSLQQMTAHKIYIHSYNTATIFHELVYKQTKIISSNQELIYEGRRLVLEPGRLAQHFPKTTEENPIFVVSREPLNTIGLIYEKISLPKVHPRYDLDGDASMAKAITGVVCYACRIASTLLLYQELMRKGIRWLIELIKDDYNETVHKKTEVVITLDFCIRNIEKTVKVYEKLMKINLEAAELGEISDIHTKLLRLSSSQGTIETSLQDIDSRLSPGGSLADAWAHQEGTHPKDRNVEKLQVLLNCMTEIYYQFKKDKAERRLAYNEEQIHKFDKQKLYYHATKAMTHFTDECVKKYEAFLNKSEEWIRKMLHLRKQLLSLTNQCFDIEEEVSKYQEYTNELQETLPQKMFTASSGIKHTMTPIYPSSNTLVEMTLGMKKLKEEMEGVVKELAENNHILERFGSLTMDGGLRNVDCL

[11] = target: Cyclin-dependent kinase-like 3 (Homo sapiens) (UniProt Q8IVW4); experiment: Selectivity interaction (KinomeScan (DiscoverX)) EUB0000045b CDKL3
[12] = target: Tyrosine-protein kinase CSK (Homo sapiens) (UniProt P41240); experiment: Selectivity interaction (KinomeScan (DiscoverX)) EUB0000607a CSK; conditions: at 10 µM
[13] = target: NT-3 growth factor receptor (Homo sapiens, UniProt Q16288); experiment: Selectivity interaction (KinomeScan (DiscoverX)) EUB0000666a NTRK3; conditions: at 10 µM
[14] = target: Dual specificity protein kinase CLK3 (Homo sapiens, UniProt P49761); experiment: Selectivity interaction (Kinase panel (DSF assay)) EUB0001558a CLK3
Dual specificity protein kinase CLK3, sequence (P49761 whole entry, looked up): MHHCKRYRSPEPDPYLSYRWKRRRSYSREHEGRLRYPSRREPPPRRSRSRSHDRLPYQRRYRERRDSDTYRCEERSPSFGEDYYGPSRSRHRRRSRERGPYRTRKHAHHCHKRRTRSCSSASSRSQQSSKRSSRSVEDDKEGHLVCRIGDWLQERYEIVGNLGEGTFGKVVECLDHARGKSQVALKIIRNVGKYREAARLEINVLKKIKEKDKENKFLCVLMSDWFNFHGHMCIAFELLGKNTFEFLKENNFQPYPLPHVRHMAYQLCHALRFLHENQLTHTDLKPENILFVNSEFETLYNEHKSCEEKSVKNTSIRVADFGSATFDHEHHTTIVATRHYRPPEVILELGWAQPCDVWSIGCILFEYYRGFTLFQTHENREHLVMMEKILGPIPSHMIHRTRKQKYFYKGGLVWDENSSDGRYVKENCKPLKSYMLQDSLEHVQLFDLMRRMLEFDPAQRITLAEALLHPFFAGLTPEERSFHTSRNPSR

T1 sequence (P29597 whole entry): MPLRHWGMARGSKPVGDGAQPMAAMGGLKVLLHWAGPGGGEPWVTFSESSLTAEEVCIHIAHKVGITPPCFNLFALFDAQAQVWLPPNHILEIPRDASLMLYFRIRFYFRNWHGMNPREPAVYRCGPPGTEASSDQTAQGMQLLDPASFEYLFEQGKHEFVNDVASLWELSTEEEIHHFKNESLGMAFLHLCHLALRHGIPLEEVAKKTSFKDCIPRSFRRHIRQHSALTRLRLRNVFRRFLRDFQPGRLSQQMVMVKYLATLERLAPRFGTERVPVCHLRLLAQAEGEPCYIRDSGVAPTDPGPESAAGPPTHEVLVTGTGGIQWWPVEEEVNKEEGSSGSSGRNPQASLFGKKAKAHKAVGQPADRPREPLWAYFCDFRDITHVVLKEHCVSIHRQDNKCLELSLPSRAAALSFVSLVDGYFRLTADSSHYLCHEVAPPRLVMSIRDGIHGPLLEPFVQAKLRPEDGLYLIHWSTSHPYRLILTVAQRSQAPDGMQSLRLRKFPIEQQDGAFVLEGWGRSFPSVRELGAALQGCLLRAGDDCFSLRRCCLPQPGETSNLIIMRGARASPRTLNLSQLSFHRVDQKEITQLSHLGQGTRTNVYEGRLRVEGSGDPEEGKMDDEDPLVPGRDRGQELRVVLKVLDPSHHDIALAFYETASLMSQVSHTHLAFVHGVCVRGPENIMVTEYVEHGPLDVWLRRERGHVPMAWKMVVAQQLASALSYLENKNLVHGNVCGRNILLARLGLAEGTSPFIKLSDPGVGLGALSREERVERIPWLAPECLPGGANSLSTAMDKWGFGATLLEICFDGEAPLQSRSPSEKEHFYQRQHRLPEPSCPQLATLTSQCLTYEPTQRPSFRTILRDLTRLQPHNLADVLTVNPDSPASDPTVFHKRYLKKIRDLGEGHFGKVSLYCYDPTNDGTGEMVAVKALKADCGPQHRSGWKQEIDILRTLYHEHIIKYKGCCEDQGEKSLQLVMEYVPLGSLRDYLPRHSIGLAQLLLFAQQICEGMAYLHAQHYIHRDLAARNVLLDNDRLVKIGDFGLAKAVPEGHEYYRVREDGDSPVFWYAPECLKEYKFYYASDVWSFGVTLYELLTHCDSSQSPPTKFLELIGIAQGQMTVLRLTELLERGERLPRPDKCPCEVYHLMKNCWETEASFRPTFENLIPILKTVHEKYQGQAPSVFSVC
Cyclin-dependent kinase-like 3 (Homo sapiens), sequence (Q8IVW4 whole entry, looked up): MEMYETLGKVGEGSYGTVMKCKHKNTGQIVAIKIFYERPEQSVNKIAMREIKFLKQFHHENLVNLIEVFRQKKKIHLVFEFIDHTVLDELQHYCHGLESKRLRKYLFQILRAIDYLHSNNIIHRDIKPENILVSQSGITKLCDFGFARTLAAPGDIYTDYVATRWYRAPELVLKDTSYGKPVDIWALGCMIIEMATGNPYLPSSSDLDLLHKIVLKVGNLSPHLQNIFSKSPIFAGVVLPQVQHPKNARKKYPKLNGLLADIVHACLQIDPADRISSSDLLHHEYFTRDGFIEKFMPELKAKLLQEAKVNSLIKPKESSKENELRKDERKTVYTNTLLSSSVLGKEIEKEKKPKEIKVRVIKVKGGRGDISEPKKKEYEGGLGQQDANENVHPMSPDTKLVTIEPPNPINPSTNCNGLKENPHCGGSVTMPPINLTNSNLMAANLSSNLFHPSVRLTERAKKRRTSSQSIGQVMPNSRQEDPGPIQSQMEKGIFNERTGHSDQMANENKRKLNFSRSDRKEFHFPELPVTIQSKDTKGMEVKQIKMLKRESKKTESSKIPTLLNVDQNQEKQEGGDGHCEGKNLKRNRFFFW
Tyrosine-protein kinase Lck, sequence (P06239 2-509 limits assumed): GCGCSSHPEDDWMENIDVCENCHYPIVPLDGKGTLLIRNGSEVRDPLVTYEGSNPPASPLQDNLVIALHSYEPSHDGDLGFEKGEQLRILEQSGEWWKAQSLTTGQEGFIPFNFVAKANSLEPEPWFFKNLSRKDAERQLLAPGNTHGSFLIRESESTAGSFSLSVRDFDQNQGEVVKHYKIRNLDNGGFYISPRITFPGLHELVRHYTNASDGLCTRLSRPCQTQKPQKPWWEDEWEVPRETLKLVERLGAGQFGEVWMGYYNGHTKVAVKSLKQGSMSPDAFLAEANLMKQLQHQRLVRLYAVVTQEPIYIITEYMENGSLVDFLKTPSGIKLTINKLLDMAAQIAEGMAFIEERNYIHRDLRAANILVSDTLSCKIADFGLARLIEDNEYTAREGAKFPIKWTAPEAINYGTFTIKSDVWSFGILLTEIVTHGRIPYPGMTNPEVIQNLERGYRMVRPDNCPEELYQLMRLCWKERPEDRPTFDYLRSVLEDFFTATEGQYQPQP
Mitogen-activated protein kinase 11 (Homo sapiens), sequence (Q15759 whole entry): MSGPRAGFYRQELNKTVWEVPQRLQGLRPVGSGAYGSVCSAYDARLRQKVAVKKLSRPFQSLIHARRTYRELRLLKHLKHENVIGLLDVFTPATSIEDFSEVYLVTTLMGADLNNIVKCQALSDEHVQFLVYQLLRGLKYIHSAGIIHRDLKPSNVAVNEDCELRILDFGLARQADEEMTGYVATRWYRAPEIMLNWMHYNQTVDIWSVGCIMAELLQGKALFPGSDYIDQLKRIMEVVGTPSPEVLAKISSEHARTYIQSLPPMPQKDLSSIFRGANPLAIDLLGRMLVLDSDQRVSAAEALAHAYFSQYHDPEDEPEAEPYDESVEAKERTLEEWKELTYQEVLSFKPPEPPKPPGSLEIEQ
Cannabinoid receptor 1, sequence (P21554 whole entry): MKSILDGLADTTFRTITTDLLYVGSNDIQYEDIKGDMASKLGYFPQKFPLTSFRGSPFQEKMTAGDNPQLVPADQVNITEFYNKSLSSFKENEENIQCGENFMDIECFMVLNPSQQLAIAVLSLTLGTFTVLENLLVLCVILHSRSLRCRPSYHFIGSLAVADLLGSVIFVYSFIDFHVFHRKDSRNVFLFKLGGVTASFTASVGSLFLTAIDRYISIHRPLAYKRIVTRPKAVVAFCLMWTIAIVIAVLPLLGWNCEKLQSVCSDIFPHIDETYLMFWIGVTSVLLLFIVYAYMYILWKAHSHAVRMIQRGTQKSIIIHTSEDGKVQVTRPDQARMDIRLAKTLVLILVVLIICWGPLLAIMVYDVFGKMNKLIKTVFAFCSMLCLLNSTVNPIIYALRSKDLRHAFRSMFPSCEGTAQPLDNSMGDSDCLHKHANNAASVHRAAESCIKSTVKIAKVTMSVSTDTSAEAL
Interferon-induced, double-stranded RNA-activated protein kinase (Homo sapiens), sequence (P19525 whole entry): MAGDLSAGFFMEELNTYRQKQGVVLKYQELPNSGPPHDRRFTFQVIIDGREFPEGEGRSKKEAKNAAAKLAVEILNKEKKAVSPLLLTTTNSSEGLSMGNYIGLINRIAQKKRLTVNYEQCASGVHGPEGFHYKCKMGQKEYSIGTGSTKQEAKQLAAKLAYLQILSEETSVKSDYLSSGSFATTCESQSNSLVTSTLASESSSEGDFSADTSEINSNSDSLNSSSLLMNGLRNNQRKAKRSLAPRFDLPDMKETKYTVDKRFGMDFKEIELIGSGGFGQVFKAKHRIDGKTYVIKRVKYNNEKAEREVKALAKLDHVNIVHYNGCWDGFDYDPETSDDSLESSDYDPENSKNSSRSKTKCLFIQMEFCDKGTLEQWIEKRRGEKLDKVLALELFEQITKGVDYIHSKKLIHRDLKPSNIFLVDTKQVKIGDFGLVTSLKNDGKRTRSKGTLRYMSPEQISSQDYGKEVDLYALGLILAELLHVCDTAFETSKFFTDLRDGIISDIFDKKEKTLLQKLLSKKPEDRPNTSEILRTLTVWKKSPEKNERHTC
SRSF protein kinase 1, sequence (Q96SB4 whole entry): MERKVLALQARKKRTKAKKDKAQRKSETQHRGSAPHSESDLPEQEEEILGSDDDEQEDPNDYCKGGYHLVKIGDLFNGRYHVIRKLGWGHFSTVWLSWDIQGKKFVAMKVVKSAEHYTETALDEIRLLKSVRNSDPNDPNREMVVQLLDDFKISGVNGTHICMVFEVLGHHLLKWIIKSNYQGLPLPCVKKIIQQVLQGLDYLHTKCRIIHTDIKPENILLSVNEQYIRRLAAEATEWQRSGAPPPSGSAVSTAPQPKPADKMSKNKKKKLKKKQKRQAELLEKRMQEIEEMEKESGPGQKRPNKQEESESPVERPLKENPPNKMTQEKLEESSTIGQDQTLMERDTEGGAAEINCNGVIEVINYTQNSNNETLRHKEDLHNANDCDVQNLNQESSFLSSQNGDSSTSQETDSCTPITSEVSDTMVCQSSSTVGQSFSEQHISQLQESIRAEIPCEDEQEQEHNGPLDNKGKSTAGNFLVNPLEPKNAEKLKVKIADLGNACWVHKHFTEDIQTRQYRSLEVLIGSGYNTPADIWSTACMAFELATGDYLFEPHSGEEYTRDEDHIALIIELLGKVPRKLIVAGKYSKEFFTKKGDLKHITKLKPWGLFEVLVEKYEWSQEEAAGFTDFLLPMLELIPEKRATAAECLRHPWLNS

% of control [1]: 47%
SMILES: Cc1cc(-c2ccnc(Nc3cnn(C)c3)n2)ccc1CNC(=O)N1CC(OC(C)C)C1

SMILES: CN(C)C/C=C/C(=O)Nc1ccc(C(=O)N2CCCC(Nc3ncc(Cl)c(-c4c[nH]c5ccccc45)n3)C2)cc1 (stereo not drawn)
% of control [2]: 84%

% of inhibition (SRSF protein kinase 1): -7.7%
% of inhibition ([4]; at 0.01 µM): 1.5%
% of inhibition ([4]; at 0.04 µM): 4%
% of inhibition ([4]; at 0.2 µM): 2.3%
% of inhibition ([4]; at 1 µM): 12.6%
% of inhibition ([4]; at 5 µM): 19.4%
% of inhibition [5]: -3.7%
SMILES: CC[C@@H]1[C@H](F)C(=O)N[C@@H]1COc1nccc2cc(C(N)=O)c(OC)cc12 [ZIMLOVISERTIB]
% of inhibition [3]: 2.82%

IC50 (Cannabinoid receptor 1): > 30 µM
SMILES: CCC(=O)N1CC[C@H](Nc2ncnc3c2CN(c2cnc(OC)c(C(F)(F)F)c2)CC3)C1 [LENIOLISIB]

% of control [6]: 100%
% of control [7]: 100%
SMILES: CCN(CC)CCCCNc1ncc2cc(-c3cc(OC)cc(OC)c3)c(NC(=O)NC(C)(C)C)nc2n1

SMILES: Cc1cc(C)cc([C@@H]2c3cc(C)ccc3NC(=O)CN2C(=O)c2ccc(Br)s2)c1
% of activity ([8]; at 1 µM): 102%
% of activity ([8]; at 10 µM): 104%

% of control ([9]; at 1 µM): 85%
% of control ([9]; at 5 µM): 89%
SMILES: C=CC(=O)Nc1cccc(C(=O)Nc2ccc(Nc3cc(-c4[nH]c(SC)nc4C)ccn3)cc2)c1

SMILES: CCC(=O)N1CCN(c2ccc(-n3c(=O)ccc4cnc5ccc(-c6cnc7ccccc7c6)cc5c43)cc2C(F)(F)F)CC1
% of control [10]: 93%

SMILES: C=CC(=O)Nc1cc(-n2c(=O)ccc3cnc4ccc(-c5ccc(NS(C)(=O)=O)cc5)cc4c32)ccc1C
% of control ([11]; at 1 µM): 100%
% of control ([11]; at 10 µM): 96%

SMILES: CNC(=O)Nc1ccc(-c2nc(N3CC4CCC(C3)O4)c3cnn(C4CCC5(CC4)OCCO5)c3n2)cc1
% of control [12]: 100%

SMILES: O=C(NOC[C@H](O)CO)c1ccc(F)c(F)c1Nc1ccc(I)cc1F
% of control [13]: 93%

SMILES: CC(C)(O)[C@H](F)CN1Cc2cc(NC(=O)c3cnn4cccnc34)c(N3CCOCC3)cc2C1=O
dTM [14]: 1.3 K
